Laboratory results taken from the supplement of paper PMC10307832.

How the values were obtained:
Experiment in all cases: relative viability (nuclei count vs DMSO), 5 days (fraction); higher = more cells survive
Daporinad + Linsitinib = compound: O=C(/C=C/c1cccnc1)NCCCCC1CCN(C(=O)c2ccccc2)CC1 [Daporinad] + C[C@]1(O)C[C@@H](c2nc(-c3ccc4ccc(-c5ccccc5)nc4c3)c3c(N)nccn32)C1 [Linsitinib] (partner 1 µM)
How it was run: (§1)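 Lung cancer cell lines were seeded in 1536-well plates and dosed by pin tool the next day, with either a single drug or a fixed anchor-drug dose combined with five library-drug doses (not always all listed) spaced in √10 steps. Five days later, one step fixed the cells and stained their nuclei (final 0.05% Triton X-100, 1% formaldehyde, 1 ug/ml Hoechst), and nuclei were counted on 4× images. Relative viability is the nuclei count in treated wells divided by the count in vehicle wells, and each value is the median of duplicate plates.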

Daporinad + Trametinib = compound: O=C(/C=C/c1cccnc1)NCCCCC1CCN(C(=O)c2ccccc2)CC1 [Daporinad] + CC(=O)Nc1cccc(-n2c(=O)n(C3CC3)c(=O)c3c(Nc4ccc(I)cc4F)n(C)c(=O)c(C)c32)c1 [Trametinib] (partner 0.02 µM)
How it was run: as §1

Daporinad + Decitabine = compound: O=C(/C=C/c1cccnc1)NCCCCC1CCN(C(=O)c2ccccc2)CC1 [Daporinad] + Nc1ncn([C@H]2C[C@H](O)[C@@H](CO)O2)c(=O)n1 [Decitabine] (partner 2 µM)
How it was run: as §1

R406 + Luminespib = compound: COc1cc(Nc2ncc(F)c(Nc3ccc4c(n3)NC(=O)C(C)(C)O4)n2)cc(OC)c1OC [R406] + CCNC(=O)c1noc(-c2cc(C(C)C)c(O)cc2O)c1-c1ccc(CN2CCOCC2)cc1 [Luminespib] (partner 0.01 µM)
How it was run: as §1

Row | Cell Line | relative viability (Daporinad + Linsitinib; first compound 0.0005 µM) | relative viability (Daporinad + Linsitinib; first compound 0.001581 µM) | relative viability (Daporinad + Linsitinib; first compound 0.005 µM) | relative viability (Daporinad + Linsitinib; first compound 0.01581 µM) | relative viability (Daporinad + Trametinib; first compound 0.0005 µM) | relative viability (Daporinad + Trametinib; first compound 0.001581 µM) | relative viability (Daporinad + Trametinib; first compound 0.005 µM) | relative viability (Daporinad + Trametinib; first compound 0.01581 µM) | relative viability (Daporinad + Decitabine; first compound 0.0005 µM) | relative viability (Daporinad + Decitabine; first compound 0.001581 µM) | relative viability (Daporinad + Decitabine; first compound 0.005 µM) | relative viability (Daporinad + Decitabine; first compound 0.01581 µM) | relative viability (R406 + Luminespib; first compound 0.08 µM) | relative viability (R406 + Luminespib; first compound 0.253 µM) | relative viability (R406 + Luminespib; first compound 0.8 µM) | relative viability (R406 + Luminespib; first compound 2.53 µM) | relative viability (R406 + Luminespib; first compound 8 µM)
1 | IA-LM | 0.531 | 0.866 | 0.437 | 0.553 |  |  |  |  |  |  |  |  |  |  |  |  | 
2 | LC-2-ad | 0.688 | 0.972 | 0.877 | 0.83 | 0.907 | 0.983 | 0.863 | 0.914 | 0.769 | 0.882 | 0.743 | 0.838 | 0.982 | 1.13 | 0.916 | 0.456 | 0.42
3 | LCLC-97TM1 | 0.204 | 0.235 | 0.193 | 0.17 | 0.188 | 0.158 | 0.189 | 0.177 | 0.221 | 0.243 | 0.209 | 0.233 | 0.771 | 0.883 | 0.72 | 0.571 | 0.291
4 | LCLC-103H | 1.01 | 1.2 | 1.16 | 1.21 | 0.738 | 0.69 | 0.701 | 0.757 | 0.793 | 0.692 | 0.744 | 0.774 | 0.843 | 1.05 | 1.23 | 0.701 | 0.663
5 | LK-2 | 0.665 | 0.648 | 0.362 | 0.196 | 0.783 | 0.795 | 0.764 | 0.283 | 0.338 | 0.323 | 0.228 | 0.13 | 0.187 | 0.198 | 0.169 | 0.163 | 0.197
6 | LOU-NH91 | 0.854 | 1.04 | 1.14 | 1.52 | 0.797 | 0.847 | 0.922 | 0.941 | 0.824 | 0.837 | 0.877 | 0.947 | 0.329 | 0.357 | 0.278 | 0.297 | 0.272
7 | LU99A | 0.497 | 0.55 | 0.604 | 0.572 | 0.511 | 0.562 | 0.598 | 0.613 | 0.898 | 0.908 | 0.943 | 0.645 | 0.232 | 0.27 | 0.244 | 0.172 | 0.221
8 | LXF-289 | 0.904 | 0.972 | 1 | 1.1 | 0.569 | 0.663 | 0.689 | 0.681 | 0.4 | 0.426 | 0.397 | 0.332 | 0.629 | 0.733 | 0.713 | 0.447 | 0.405
9 | NCI-H23 | 0.699 | 0.518 | 0.537 | 0.279 | 0.395 | 0.382 | 0.412 | 0.342 | 0.319 | 0.306 | 0.272 | 0.23 | 0.217 | 0.251 | 0.228 | 0.181 | 0.168
10 | NCI-H322M | 0.995 | 1.03 | 0.926 | 0.925 | 0.507 | 0.484 | 0.504 | 0.441 | 0.659 | 0.749 | 0.683 | 0.664 | 0.791 | 0.827 | 0.855 | 0.306 | 0.35
11 | NCI-H358 | 0.64 | 0.822 | 0.882 | 0.791 | 0.135 | 0.152 | 0.15 | 0.18 | 0.215 | 0.256 | 0.233 | 0.194 | 0.313 | 0.555 | 0.492 | 0.147 | 0.136
12 | NCI-H441 | 0.533 | 0.473 | 0.605 | 0.56 | 0.351 | 0.426 | 0.496 | 0.573 | 0.249 | 0.204 | 0.281 | 0.237 | 0.399 | 0.373 | 0.432 | 0.277 | 0.209
13 | NCI-H460 | 0.759 | 0.928 | 0.818 | 0.777 | 0.0943 | 0.147 | 0.187 | 0.206 | 0.493 | 0.466 | 0.481 | 0.453 | 0.0325 | 0.0281 | 0.0243 | 0.023 | 0.0248
14 | NCI-H522 |  |  |  |  | 0.906 | 0.753 | 0.67 | 0.835 | 0.626 | 0.689 | 0.634 | 0.628 | 1.09 | 1.31 | 1.32 | 0.841 | 1.04
15 | NCI-H1299 | 0.986 | 1.14 | 0.975 | 0.941 |  |  |  |  |  |  |  |  |  |  |  |  | 
16 | NCI-H1563 | 1.29 | 1.21 | 1.07 | 0.739 |  |  |  |  |  |  |  |  | 0.542 | 0.654 | 0.475 | 0.485 | 0.452
17 | NCI-H1623 |  |  |  |  |  |  |  |  |  |  |  |  | 0.435 | 0.483 | 0.66 | 0.371 | 0.424
18 | NCI-H1648 |  |  |  |  | 0.469 | 0.418 | 0.417 | 0.447 | 0.463 | 0.528 | 0.511 | 0.44 |  |  |  |  | 
19 | NCI-H1650 |  |  |  |  | 0.565 | 0.628 | 0.635 | 0.572 | 0.402 | 0.396 | 0.458 | 0.327 | 0.185 | 0.196 | 0.194 | 0.184 | 0.182
20 | NCI-H1703 | 0.77 | 1.27 | 0.996 | 0.626 |  |  |  |  |  |  |  |  |  |  |  |  | 
21 | NCI-H2170 |  |  |  |  | 0.789 | 0.943 | 0.84 | 0.948 | 0.491 | 0.446 | 0.444 | 0.439 | 0.641 | 0.622 | 0.856 | 0.366 | 0.574
22 | NCI-H2228 | 0.668 | 0.812 | 0.633 | 0.951 | 0.439 | 0.18 | 0.576 | 0.531 |  |  |  |  | 0.145 | 0.213 | 0.103 | 0.0925 | 0.0961
23 | NCI-H2342 |  |  |  |  | 1.04 | 0.82 | 0.782 | 0.844 | 0.814 | 0.58 | 0.67 | 0.72 | 0.757 | 0.811 | 0.819 | 0.581 | 0.76
24 | SW 900 |  |  |  |  | 0.668 |  | 1.03 | 0.663 | 0.438 |  | 0.403 | 0.374 | 0.18 | 0.186 | 0.177 | 0.125 | 0.117
